Reference: PMC5897774, “Mitotic spindle association of TACC3 requires Aurora‐A‐dependent stabilization of a cryptic α‐helix” (The EMBO Journal, 2018)
One block for each molecule: values may come before it. Residues, ends and D or L forms follow the SMILES beside them. No end group written: not given here.

How the values were obtained:
[1] = test system: mitotic spindle, HeLa cells; test: Spindle localization of re‐expressed GFP‐CHC constructs in CHC‐depleted HeLa cells; format: cell-based, human; conditions: metaphase, endogenous CHC depleted, confocal imaging
Procedure: For RNAi and re‐expression of GFP‐tagged proteins in HeLa cells, siRNA and pBrain plasmids were used. Briefly, for TACC3, cells were transfected with siRNA on day 0, transfected 10 h later with pBrain plasmid and analysed on day 2. For CHC, cells were transfected with siRNA on day 0, transfected with pBrain plasmids on day 2 and fixed on day 4.
For immunofluorescence studies on the CHC/TACC3 interface mutants, cells were fixed with PTEMF (50 mM PIPES, pH 7.2, 10 mM EGTA, 1 mM MgCl2, 0.2% Triton X‐100, and 4% paraformaldehyde) for 15 min at RT, and then permeabilized (PBS with 0.1% Triton X‐100) for 10 min. Cells were blocked (PBS with 3% BSA, 5% goat serum) for 30 min, and then incubated for 1 h with the specified primary antibodies: mouse anti‐CHC (X22, Affinity BioReagents, 1:1,000), rabbit anti‐alpha tubulin (Thermo, PA5‐19489, 1:1,000), mouse anti‐TACC3 (AbCam, ab56595, 1:1,000). Secondary antibodies labelled with Alexa Fluor 568 or Alexa Fluor 647 from Life Technologies (diluted 1:500) were used along with DAPI. […] Equal exposure settings and scaling were used between conditions.
For spindle enrichment analysis, mean pixel density in two 10 × 10 pixel ROI was measured either over the spindle (away from poles), in the cytoplasm or in a non‐cell region of background, using ImageJ. Background was subtracted from the spindle and cytoplasm measurements, and spindle fluorescence was then divided by cytoplasm fluorescence. Sample sizes 48–53 cells (TACC3) and 36–51 cells (CHC) over two experiments were analysed per condition. […] Differences in spindle recruitment were evident at all expression levels. IgorPro was used to find and plot the ratio of spindles to cytoplasmic fluorescence intensity per cell. Images were cropped in ImageJ, and figures were assembled in Adobe Illustrator. Some images were contrast adjusted for presentation.

[2] = molecular target: T1, Aurora‐A (Homo sapiens, UniProt O14965, C290A/C393A); test: FP binding assay, FAM-TACC3 peptides to Aurora‐A (WT); conditions: fluorescence polarization
T1 construct: pET30TEV Aurora‐A 122–403 C290A, C393A; made in house
T1 sequence (O14965 122-403 C290A/C393A): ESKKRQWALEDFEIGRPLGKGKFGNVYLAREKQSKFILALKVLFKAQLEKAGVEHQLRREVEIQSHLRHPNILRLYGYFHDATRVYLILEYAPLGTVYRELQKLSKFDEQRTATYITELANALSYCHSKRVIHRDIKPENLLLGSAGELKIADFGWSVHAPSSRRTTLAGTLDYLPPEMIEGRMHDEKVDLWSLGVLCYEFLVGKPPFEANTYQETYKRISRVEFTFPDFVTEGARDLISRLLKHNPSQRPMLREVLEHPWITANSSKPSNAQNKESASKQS
Procedure: The contributions of the site 1 residues to the interaction were quantified using fluorescence polarization spectroscopy (FP) with a set of fluorescein (FAM)‐labelled peptides. […] Mutations within the pocket on Aurora‐A which accommodates the F525 side chain (E134A, R137A, L149A, R151A and I158A mutations) all reduced the affinity for the WT TACC3 522–536 peptide.
Aurora‐A/TACC3 fluorescence polarization assays were performed as stated (Richards et al, 2016) using FAM‐TACC3 peptides (PPR, Cambridge; Almac, Craigavon). Binding assays were performed in triplicate. FP signal was fit to a one‐site total binding model in Prism 6 (GraphPad). Results are reported as K d ± SE.

[3] = molecular target: T1, Aurora‐A; test: Radioactive 32P‐ATP kinase assay, MBP substrate; format: biochemical; conditions: 0.625 μM phosphorylated Aurora‐A, 5 μM TACC3^N‐ACID, 0.25 mg/ml MBP, 10 min, scintillation counting, duplicate
Procedure: Figure EV2 Biochemical and structural analysis of the Aurora‐A/TACC3 complex • FP assay between FAM‐TACC3 519–570 and Aurora‐A. Reactions were performed in triplicate. Error bars represent standard deviation. […] Error bars represent standard deviation. […] This peptide was based on the location of a sulphate ion, originating from the crystallization solution, at the interface of the Aurora‐A/TACC3 interface in the crystal structure, close to TACC3 T534. […] Myelin basic protein (MBP) was used as a generic kinase substrate. Incorporation of radioisotope was measured by scintillation counting. Reactions were performed in duplicate. Error bars represent standard error. Assays were compared to the WT TACC3^N‐ACIDH6c reaction by one‐way ANOVA with Dunnett's post hoc test. […], **P < 0.01 and ****P < 0.0001. • Multiple sequence alignment of TACC3 (above) and Aurora‐A (below) orthologs spanning the interaction binding interface. Key binding residues are boxed in red. The TACC3 phosphorylation sites, S552 and S558, are boxed in blue. The TACC3 LL motif required for binding to CHC is boxed in green. The TACC3 α‐helix produced on binding to CHC is identified by a black line. TEXT PRINTED IN THE PICTURE: (A) TACC3 519-570: 3.0 ± 0.2 μM | (B) WT: 20 ± 1 μM | (B) R526A: 49 ± 2 μM | (B) phospho-T534: 14 ± 1 μM
Radioactive ^32P‐ATP kinase assays were performed as described previously (Burgess et al, 2015). In brief, 0.625 μM Aurora‐A^M3KD WT or selected mutant was incubated with 0.25 mg/ml MBP alone and in the presence of 5 μM TACC3^N‐ACID WT or mutant for 10 min. Reactions were terminated by the addition of 2% (v/v) orthophosphoric acid. Samples were spotted onto P81 Whatman paper, washed extensively with 0.2% (v/v) orthophosphoric acid and incorporation of radioisotope measured by scintillation counting.

[4] = molecular target: T2, FAM‐TACC3 549–570 phosphorylated on S558 (FAM‐phospho‐TACC3^CID) (human, UniProt Q9Y6A5 549-570, fluorescein (FAM) label; phosphoserine at 558); test: fluorescence polarisation; CHC proteins serially diluted in 20 mM HEPES–NaOH pH 7.5, 200 mM NaCl, 5 mM DTT; 50 nM FAM‐labelled TACC3 peptide; 30 min at room temperature; read at 25°C; conditions: both partners purified
T2 construct: TACC3, human, aa549–570 (TACC3^CID); also called pTACC3^CID; FAM‐labelled pTACC3^CID; source: FAM‐labelled peptide (FAM‐TACC3 peptides: PPR, Cambridge; Almac, Craigavon)
T2 peptide (looked up): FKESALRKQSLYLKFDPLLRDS

Molecule: GFP‐CHC L476D, L480D: GFP-CHC mutated in the TACC3 binding site
spindle localization of GFP‐CHC construct [1]: impaired in spindle localization

Molecule: GFP‐CHC R481E: GFP-CHC mutated in the TACC3 binding site
spindle localization of GFP‐CHC construct [1]: impaired in spindle localization

Molecule: GFP‐CHC L503A, Y504A: GFP-CHC mutated in the TACC3 binding site
spindle localization of GFP‐CHC construct [1]: impaired in spindle localization

Molecule: GFP‐CHC D455K: mutation of a residue that holds R481 in place
spindle localization of GFP‐CHC construct [1]: impaired in spindle localization

Now from value to molecule:

Kd ([2]; FAM‐labelled peptide, triplicate, one‐site total binding fit, legend: mean of three experiments ± SD, methods: K d ± SE, read-out: K d (binding affinity)): 3 ± 0.2 µM
Molecule: ELKEESFRDPAEVLGTGAEVDYLEQFGTSSFKESALRKQSLYLKFDPLLRDS [FAM‐TACC3 519–570]

reduced affinity ([2]; relative to WT TACC3 522–536 peptide): 10 fold
Molecule: CC(C)[C@H](NC(=O)[C@H](CCC(=O)O)NC(=O)[C@H](C)NC(=O)[C@@H]1CCCN1C(=O)[C@H](CC(=O)O)NC(=O)[C@H](CCCNC(=N)N)NC(=O)[C@H](Cc1ccccc1)NC(=O)[C@H](CO)NC(=O)[C@H](CCC(=O)O)NC(=O)[C@H](CCC(=O)O)NC(=O)c1ccc2c(c1)C(=O)OC21c2ccc(O)cc2Oc2cc(O)ccc21)C(=O)N[C@@H](C)C(=O)NCC(=O)N[C@H](C(=O)NCC(=O)N[C@@H](C)C(=O)O)[C@@H](C)O [L532A] (HELM PEPTIDE1{[O=C1OC2(c3ccc(O)cc3Oc3cc(O)ccc32)c2ccc(C(=O)[*:2])cc21].E.E.S.F.R.D.P.A.E.V.A.G.T.G.A}$$$$V2.0; N-terminus and C-terminus assumed)

stimulation of Aurora‐A activity [3]: twofold–threefold
Molecule: TACC3^N‐ACID L532A: TACC3^N-ACID with L532A mutation (ELKEESFRDPAEVAGTGAEVDYLEQFGTSSFKESALRKQSLYLKF; not fully specified (C-terminus))

fold increase in Kd against WT [4]: > 6 fold
B1: CHC 1–574 F492Y (domain or fragment, UniProt Q00610 1-574, looked up)
chain: MAQILPIRFQEHLQLQNLGINPANIGFSTLTMESDKFICIREKVGEQAQVVIIDMNDPSNPIRRPISADSAIMNPASKVIALKAGKTLQIFNIEMKSKMKAHTMTDDVTFWKWISLNTVALVTDNAVYHWSMEGESQPVKMFDRHSSLAGCQIINYRTDAKQKWLLLTGISAQQNRVVGAMQLYSVDRKVSQPIEGHAASFAQFKMEGNAEESTLFCFAVRGQAGGKLHIIEVGTPPTGNQPFPKKAVDVFFPPEAQNDFPVAMQISEKHDVVFLITKYGYIHLYDLETGTCIYMNRISGETIFVTAPHEATAGIIGVNRKGQVLSVCVEEENIIPYITNVLQNPDLALRMAVRNNLAGAEELFARKFNALFAQGNYSEAAKVAANAPKGILRTPDTIRRFQSVPAQPGQTSPLLQYFGILLDQGQLNKYESLELCRPVLQQGRKQLLEKWLKEDKLECSEELGDLVKSVDPTLALSVYLRANVPNKVIQCYAETGQVQKIVLYAKKVGYTPDWIFLLRNVMRISPDQGQQFAQMLVQDEEPLADITQIVDVFMEYNLIQQCTAFLLDALKNNR
notes: source: expressed and purified as the WT protein (modified pGEX vector; GST cleaved with TEV)
